US20240197761A1, “FUCOSYLATION AND IMMUNE MODULATION IN CANCER” (H. LEE MOFFITT CANCER CENTER AND RESEARCH INSTITUTE, INC., priority 2021, published 2024)

System: SW1 tumors
Assay: Control vs. L-fucose ± FTY720 model: tumor growth and flow cytometric profiling of tumors and lymph nodes (Table 1)
Type: in vivo, C3H/HeN mice
Protocol: FIGS. 15A-15E Lymph node egress is necessary for L-fucose-triggered tumor suppression; L-fucose increases intratumoral CD4+T stem and central memory cells. (a) Immune subpopulations markers use to profile by flow cytometry. (b) Volumetric growth curves for SW1 tumors in C3H/HeN mice fed without (Ctl) or with L-fucose (LF) and treated with FTY720 (Ctl mice administered FTY720: (FTY); LF-supplemented mice administered FTY720: (L+F)). FTY720 was administered at 20 μg per mouse every 2 days starting on Day 12, just prior to the initiation of LF (c) Pie charts showing ratios of intratumoral or lymph node-resident CD4+ or CD8+T cell subpopulations, as well as DC subtypes from mice at Day 14, 28, and 42 (each pie chart represents 4-5 mice). Assessment of cytotoxic CD4+ T cell populations (CRTAM+) and cytotoxic CD8+ T cell populations (GrzB+) from tumors at Day 28 (d) and Day 42 (e). The tumor growth curves are means±SEM from ≥7 mice per group. *=p<0.05.
Tumors of SW1 or SM1 melanoma cells from […] or C57BL/6 mice, respectively) were digested using 1× tumor digest buffer (0.5 mg/mL Collagenase I, 0.5 mg/mL Collagenase IV, 0.25 mg/mL Hyalyronidase V, 0.1 mg/mL DNAse I in HBSS (Millipore Sigma (St. Louis, MO)). Tumors were homogenized using the Miltenyi MACs dissociator. Red blood cells were lysed using ACK lysis buffer (Life Technologies, (Grand Island, NY)). Tumor homogenate cells were counted using a standard hemocytometer.
Total TILs were gated first to single cells (based on forward scatter height vs width, followed by side scatter height vs. width). Live cells were gated from the Zombie negative population from the population above. TILs were gated based on splenocyte size from a control spleen. Individual immune subpopulations were sub-gated from the total TIL population using the following staining criteria: CD3+ for CD3+ T cells; CD3+/CD4+/CD8− for CD4+T cells; CD3+/CD4−/CD8+ for CD8+ T cells, CD11c+/CD11b+ for DCs; either NK1.1 (for C57/BL6 mice) or DX5 (for C3H/HeJ) for NK cells; CD11b+/GR1+ for MDSC-like cells; and F4/80+ for macrophages. Single-cell suspensions from tumor and spleen tissue were stained with Live/Dead Zombie NIR (Biolegend, (San Diego, CA)) at 1:1,000 in PBS for 20 min. Cell suspensions were spun down and stained with the following with antibodies at 0.5 μg/ml per antibody: APC anti-mouse CD3, Pacific Blue anti-mouse CD4, BV785 anti-mouse CD8, PerCP anti-mouse CD25, FITC anti-mouse F4/80, PeCy7 anti-mouse CD11c, PE anti-mouse NK1.1 or PE anti-mouse DX5, and PerCP-Cy5.5 anti-mouse CD11 b. After staining, the cells were washed and fixed (2% formaldehyde), followed by another wash and flow cytometric analysis. The compensation controls were prepared using 0.5 μg/mL of each antibody with UltraComp eBeads, (ThermoFisher Scientific (Waltham, MA)). All samples were subject to flow cytometric profiling using a LSR Flow Cytometer (BD Biosciences (San Jose, CA)) and analysis as indicated using FlowJo software (BD Biosciences (San Jose, CA)).
SW1 or SM1 mouse melanoma cells were injected into syngeneic C3H/HeN (or NSG) female or C57BL/6 male mice, respectively. Cells were injected as follows: parental SW1 cells for FIG. 13A; parental SM1 cells for FIG. 13E; SW1 cells stably expressing either empty vector (EV) or mouse fucose kinase (mFuk) for FIG. 1L; and parental SW1 cells for FIG. 13M. FTY720 was administered at 20 μg every 2 days starting on Day 12, just prior to the initiation of LF, until endpoint.

Question: For CCCCCCCCc1ccc(CCC(N)(CO)CO)cc1 [FTY720, reference compound], which “CD4 central memory, average # of cells” value (Day 28, lymph nodes) is on record?
Answer: The value was 1362.38 per 10^6 cells of total tumor.

Question: And the “CD4 effector memory, average # of cells” value (Day 28, lymph nodes)?
Answer: The value was 372.53 per 10^6 cells of total tumor.

Question: What about the “CD4 naïve, average # of cells” value (Day 28, lymph nodes) of the same compound?
Answer: Its value is 20717.91 per 10^6 cells of total tumor.

Question: What about the “CD4 stem central memory, average # of cells” value (shortened to “CD4 stem central memory”) (Day 28, lymph nodes) of the same compound?
Answer: Its value is 24893.27 per 10^6 cells of total tumor.

Question: What about the “CD8 central memory, average # of cells” value (Day 28, lymph nodes) of the same compound?
Answer: The value was 85.45 per 10^6 cells of total tumor.

Question: What about the “CD8 effector memory, average # of cells” value (Day 28, lymph nodes) of the same compound?
Answer: The value was 421.08 per 10^6 cells of total tumor.

Question: What about the “CD8 naïve, average # of cells” value (Day 28, lymph nodes) of the same compound?
Answer: The value was 6153.14 per 10^6 cells of total tumor.

Question: What about the “CD8 stem central memory, average # of cells” value (“CD8 stem central memory” below) (Day 28, lymph nodes) of the same compound?
Answer: The value was 311.59 per 10^6 cells of total tumor.

Question: And the “cDC1, average # of cells” value (Day 28, lymph nodes)?
Answer: The value was 147.79 per 10^6 cells of total tumor.

Question: And the “cDC2, average # of cells” value (Day 28, lymph nodes)?
Answer: Its value is 448.71 per 10^6 cells of total tumor.

Question: What about the “moDC, average # of cells” value (Day 28, lymph nodes) of the same compound?
Answer: Its value is 41.74 per 10^6 cells of total tumor.

Question: What about the “CD4 central memory, average # of cells” value (Day 28, tumors) of the same compound?
Answer: Its value is 11.56 per 10^6 cells of total tumor.

Question: What about the “CD4 effector memory, average # of cells” value (Day 28, tumors) of the same compound?
Answer: The value was 336.07 per 10^6 cells of total tumor.

Question: What about the “CD4 naïve, average # of cells” value (Day 28, tumors) of the same compound?
Answer: Its value is 60.03 per 10^6 cells of total tumor.

Question: And the “CD4 stem central memory” value (Day 28, tumors)?
Answer: The value was 0.87 per 10^6 cells of total tumor.

Question: And the “CD8 central memory, average # of cells” value (Day 28, tumors)?
Answer: Its value is 1.22 per 10^6 cells of total tumor.

Question: What about the “CD8 effector memory, average # of cells” value (Day 28, tumors) of the same compound?
Answer: The value was 54.02 per 10^6 cells of total tumor.

Question: And the “CD8 naïve, average # of cells” value (Day 28, tumors)?
Answer: Its value is 24.54 per 10^6 cells of total tumor.

Question: What about the “CD8 stem central memory” value (Day 28, tumors) of the same compound?
Answer: The value was 0.00 per 10^6 cells of total tumor.

Question: What about the “cDC1, average # of cells” value (Day 28, tumors) of the same compound?
Answer: Its value is 463.94 per 10^6 cells of total tumor.

Question: What about the “cDC2, average # of cells” value (Day 28, tumors) of the same compound?
Answer: Its value is 8181.08 per 10^6 cells of total tumor.

Question: And the “moDC, average # of cells” value (Day 28, tumors)?
Answer: The value was 7526.28 per 10^6 cells of total tumor.

Question: And the “CD4 central memory, average # of cells” value (Day 42, lymph nodes)?
Answer: The value was 949.35 per 10^6 cells of total tumor.

Question: What about the “CD4 effector memory, average # of cells” value (Day 42, lymph nodes) of the same compound?
Answer: The value was 3499.07 per 10^6 cells of total tumor.

Question: And the “CD4 naïve, average # of cells” value (Day 42, lymph nodes)?
Answer: The value was 65491.17 per 10^6 cells of total tumor.

Question: What about the “CD4 stem central memory” value (Day 42, lymph nodes) of the same compound?
Answer: Its value is 742.12 per 10^6 cells of total tumor.

Question: And the “CD8 central memory, average # of cells” value (Day 42, lymph nodes)?
Answer: Its value is 949.35 per 10^6 cells of total tumor.

Question: What about the “CD8 effector memory, average # of cells” value (Day 42, lymph nodes) of the same compound?
Answer: The value was 3499.07 per 10^6 cells of total tumor.

Question: And the “CD8 naïve, average # of cells” value (Day 42, lymph nodes)?
Answer: The value was 65491.17 per 10^6 cells of total tumor.

Question: And the “CD8 stem central memory” value (Day 42, lymph nodes)?
Answer: The value was 742.12 per 10^6 cells of total tumor.

Question: And the “cDC1, average # of cells” value (Day 42, lymph nodes)?
Answer: The value was 1731.49 per 10^6 cells of total tumor.

Question: And the “cDC2, average # of cells” value (Day 42, lymph nodes)?
Answer: The value was 3881.72 per 10^6 cells of total tumor.

Question: What about the “moDC, average # of cells” value (Day 42, lymph nodes) of the same compound?
Answer: The value was 1219.26 per 10^6 cells of total tumor.

Question: What about the “CD4 central memory, average # of cells” value (Day 42, tumors) of the same compound?
Answer: Its value is 32.54 per 10^6 cells of total tumor.

Question: And the “CD4 effector memory, average # of cells” value (Day 42, tumors)?
Answer: The value was 160.89 per 10^6 cells of total tumor.

Question: What about the “CD4 naïve, average # of cells” value (Day 42, tumors) of the same compound?
Answer: Its value is 44.22 per 10^6 cells of total tumor.

Question: And the “CD4 stem central memory” value (Day 42, tumors)?
Answer: The value was 18.52 per 10^6 cells of total tumor.

Question: And the “CD8 central memory, average # of cells” value (Day 42, tumors)?
Answer: Its value is 5.73 per 10^6 cells of total tumor.

Question: What about the “CD8 effector memory, average # of cells” value (Day 42, tumors) of the same compound?
Answer: The value was 220.02 per 10^6 cells of total tumor.

Question: And the “CD8 naïve, average # of cells” value (Day 42, tumors)?
Answer: Its value is 19.42 per 10^6 cells of total tumor.

Question: What about the “CD8 stem central memory” value (Day 42, tumors) of the same compound?
Answer: Its value is 0.00 per 10^6 cells of total tumor.

Question: And the “cDC1, average # of cells” value (Day 42, tumors)?
Answer: The value was 607.65 per 10^6 cells of total tumor.

Question: What about the “cDC2, average # of cells” value (Day 42, tumors) of the same compound?
Answer: The value was 279.84 per 10^6 cells of total tumor.

Question: And the “moDC, average # of cells” value (Day 42, tumors)?
Answer: The value was 197.56 per 10^6 cells of total tumor.

Question: What about the “intratumoral CD4+T central and effector memory subpopulations” value (FIG. 15c) of the same compound?
Answer: Its value is “abrogated”.
